Assay results from patent US9090600B2, “Fungicidal 4-substituted-3-{phenyl[(heterocyclylmethoxy)imino]methyl}-1,2,4-oxadizol-5(4H)-one derivatives” (BAYER INTELLECTUAL PROPERTY GMBH, priority 2011, dated 2015).
Read-outs that look alike come from different tables or passages of the source. Marks after values point to notes of the source that are not given here.

How the values were obtained:
[1] = Measurement of log P values by HPLC on reversed phase columns (EEC directive 79/831 Annex V.A8); settings: for chromatographic logP: pH 2.7; for LogP: method [a], HPLC on reversed phase columns
Puccinia recondita = test: In vivo test on Puccinia recondita (brown rust); settings: wheat plants, spray, 500 ppm, grading 10 days after contamination
Description: The active ingredients tested are prepared by homogenization in a mixture of acetone/tween/DMSO, then diluted with water to obtain the desired active material.
Wheat plants (Scipion variety) sown on 50/50 peat soil-pozzolana substrate in starter cups and grown at 22° C. (12 h)/20° C. (12 h), are treated at the 1-leaf stage (10 cm tall) by spraying with the aqueous suspension described above.
Plants, used as controls, are treated with an aqueous solution not containing the active material. After 24 hours, the plants are contaminated by spraying the leaves with an aqueous suspension of Puccinia recondite spores (100.000 spores per ml). The spores are collected from a 10-day-old contaminated wheat and are suspended in water containing 2.5 ml/l of tween 80 10%. The contaminated wheat plants are incubated for 24 hours at 20° C. and at 100% relative humidity, and then for 10 days at 20° C. and at 70% relative humidity. Grading is carried out 10 days after the contamination, in comparison with the control plants.
(§1) Under these conditions, good (at least 70%) or total protection is observed at a dose of 500 ppm with the following compounds: […]

[2] = pH 2.7
Phytophthora infestans [3] = assay type: in vivo; settings: tomato plants, spray, 500 ppm, grading 5 days after contamination
[4] = system: Mycosphaerella graminicola; test: In vivo test on Mycosphaerella graminicola (wheat leaf spot); settings: wheat plants, spray, 500 ppm, grading 21 to 28 days after contamination
Description: The active ingredients tested are prepared by homogenization in a mixture of acetone/tween/DMSO, then diluted with water to obtain the desired active material concentration.
Wheat plants (Scipion variety), sown on a 50/50 peat soil-pozzolana substrate in starter cups and grown at 22° C. (12 h)/20° C. (12 h), are treated at the 1-leaf stage (10 cm tall) by spraying with the aqueous suspension described above. Plants, used as controls, are treated with an aqueous solution not containing the active material.
After 24 hours, the plants are contaminated by spraying them with an aqueous suspension of cryopreserved Mycosphaerella graminicola spores (500.000 spores per ml). The contaminated wheat plants are incubated for 72 hours at 18° C. and at 100% relative humidity, and then for 21 to 28 days at 90% relative humidity.
Grading (% of efficacy) is carried out 21 to 28 days after the contamination, in comparison with the control plants.
as §1

Phytophthora infestans [5] = assay type: in vivo; settings: tomato, preventive spray, 100 ppm of active ingredient, evaluated 7 days after inoculation
Plasmopara viticola = test: Plasmopara test (grapevines)/preventive; assay type: in vivo; settings: preventive spray, 10 ppm of active ingredient, evaluated 6 days after inoculation
Summary of the method: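 Young grapevines sprayed preventively with compound formulated in acetone/dimethylacetamide with emulsifier, diluted in water, then inoculated with P. viticola spores after drying. Held 1 day at ~20 °C/100% RH, 4 days in greenhouse at ~21 °C/~90% RH, then misted for 1 day. Efficacy scored 6 days post-inoculation (0% = untreated control, 100% = no disease).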

Cn1c(C(=O)c2ccccc2)noc1=O [VII-1, 3-benzoyl-4-methyl-1,2,4-oxadiazol-5(4H)-one]
chromatographic logP [1]: 3.21

CCCCC(=O)Nc1cccc(CO/N=C(/c2cccc(C)c2)c2noc(=O)n2C)n1 [Example 384]
Eff. % (Puccinia recondita): 79% | LogP [2]: 3.83 [a] | Eff. % (Phytophthora infestans [3]): 100% | Eff. % [4]: 70%

CCCCOC(=O)Nc1nc(CO/N=C(/c2ccccc2)c2noc(=O)n2C)cs1 [Example 14, butyl {4-[({[(Z)-(4-methyl-5-oxo-4,5-dihydro-1,2,4-oxadiazol-3-yl)(phenyl)methylene]amino}oxy)methyl]-1,3-thiazol-2-yl}carbamate]
Eff. % (Phytophthora infestans [5]): 95% | Eff. % (Plasmopara viticola): 96% | chromatographic logP [1]: 3.73

Cn1c(/C(=N\OCc2cccc(NC(=O)C3(C)CCCCC3)n2)c2ccccc2)noc1=O [Example 40]
Eff. % (Phytophthora infestans [3]): 100% | LogP [1]: 4.36 [a]

Cn1c(/C(=N\OCc2cccc(NC(=O)Cc3ccccc3)n2)c2ccccc2)noc1=O [Example 341]
LogP [2]: 3.53 [a] | Eff. % (Phytophthora infestans [3]): 100% | Eff. % [4]: 70%

Nc1nc(CO/N=C(/c2ccccc2)c2noc(=O)[nH]2)cs1 [Example 24, 3-[(Z)-{[(2-amino-1,3-thiazol-4-yl)methoxy]imino}(phenyl)methyl]-1,2,4-oxadiazol-5(4H)-one]
chromatographic logP [1]: 1.58

CCn1c(/C(=N\OCc2cccc(NC(=O)C3COc4ccccc4O3)n2)c2ccccc2)noc1=O (centres unmarked) [Example 130]
LogP [2]: 4.14 [a] | Eff. % (Phytophthora infestans [3]): 100% | Eff. % [4]: 86%

NC(=N\O)/C(=N\OCc1csc(N)n1)c1ccccc1 [Example V-2, (1Z,2Z)-2-{[(2-amino-1,3-thiazol-4-yl)methoxy]imino}-N′-hydroxy-2-phenylethanimidamide]
chromatographic logP [1]: 0.43

Cn1c(/C(=N\OCc2cccc(NCCC3CCCCC3)n2)c2ccccc2)noc1=O [Example 253, 3-[(Z)-[({6-[(2-cyclohexylethyl)amino]pyridin-2-yl}methoxy)imino](phenyl)methyl]-4-methyl-1,2,4-oxadiazol-5(4H)-one]
chromatographic logP [1]: 2.96

Cn1c(/C(=N/OCc2cccc(N)n2)c2ccccc2)noc1=O [Example 25, 3-[(E)-{[(6-aminopyridin-2-yl)methoxy]imino}(phenyl)methyl]-4-methyl-1,2,4-oxadiazol-5(4H)-one]
chromatographic logP [1]: 1.14

COc1cccc(C(=O)Nc2cccc(CO/N=C(/c3ccccc3)c3noc(=O)n3C)n2)c1 [Example 44]
Eff. % (Phytophthora infestans [3]): 100% | Eff. % (Plasmopara viticola): 98% | LogP [1]: 3.62 [a]

Cn1c(/C(=N\OCc2cccc(NC(=O)C(c3ccccc3)c3ccccc3)n2)c2ccccc2)noc1=O [Example 46]
LogP [1]: 4.48 [a]

Cn1c(/C(=N\OCc2cccc(NC(=O)CC(C)(C)C)n2)c2ccccc2)noc1=O [Example 173]
Eff. % (Puccinia recondita): 89% | LogP [2]: 3.78 [a] | Eff. % (Phytophthora infestans [3]): 100% | Eff. % [4]: 73% | Eff. % (Plasmopara viticola): 86%

C=CCCCOC(=O)Nc1cccc(CO/N=C(/c2ccccc2)c2noc(=O)n2C)n1 [Example 6]
Eff. % (Phytophthora infestans [5]): 98% | Eff. % (Plasmopara viticola): 100% | LogP [1]: 4.06 [a]

CCCCOC(=O)Nc1cccc(CO/N=C(/c2ccccc2)c2noc(=O)n2C)n1 [Example 18, butyl {6-[({[(Z)-(4-methyl-5-oxo-4,5-dihydro-1,2,4-oxadiazol-3-yl)(phenyl)methylene]amino}oxy)methyl]pyridin-2-yl}carbamate]
Eff. % (Phytophthora infestans [5]): 95% | Eff. % (Plasmopara viticola): 100% | chromatographic logP [1]: 4.04

CCCC(C)C(=O)Nc1cccc(CON=C(c2ccccc2)c2noc(=O)n2C)n1 (centres unmarked) [Example 248]
LogP [2]: 3.8 [a] | Eff. % (Phytophthora infestans [3]): 100% | Eff. % [4]: 86% | Eff. % (Plasmopara viticola): 85%

N/C(=N\O)C(=NOCc1cccc(N)n1)c1ccccc1 [Example V-3, (Z)-2-{[(6-aminopyridin-2-yl)methoxy]imino}-N′-hydroxy-2-phenylethanimidamide]
chromatographic logP [1]: 0.41

Cn1c(/C(=N\OCc2csc(N)n2)c2ccccc2)noc1=O [Example 4, 3-[(Z)-{[(2-amino-1,3-thiazol-4-yl)methoxy]imino}(phenyl)methyl]-4-methyl-1,2,4-oxadiazol-5(4H)-one]
chromatographic logP [1]: 1.54

CC(Oc1ccccc1)C(=O)Nc1nc(CO/N=C(/c2ccccc2)c2noc(=O)n2C)cs1 (centres unmarked) [Example 19]
Eff. % (Phytophthora infestans [5]): 95% | Eff. % (Plasmopara viticola): 97% | LogP [1]: 3.71 [a]

CCn1c(C(=NOCc2cccc(NC(=O)OCCc3ccccc3)n2)c2ccccc2)noc1=O [Example 270]
LogP [2]: 4.41 [a] | Eff. % (Phytophthora infestans [3]): 100% | Eff. % [4]: 86%

Cn1c(/C(=N\OCc2cccc(N(CCC3CCCCC3)C(=O)OC(C)(C)C)n2)c2ccccc2)noc1=O [Example 279, tert-butyl (2-cyclohexylethyl){6-[({[(Z)-(4-methyl-5-oxo-4,5-dihydro-1,2,4-oxadiazol-3-yl)(phenyl)methylene]amino}oxy)methyl]pyridin-2-yl}carbamate]
chromatographic logP [1]: 6.73

COc1cccc(/C(=N/OCc2cccc(N)n2)c2noc(=O)n2C)c1 [Example 108]
LogP [2]: 1.32 [a] | Eff. % (Phytophthora infestans [3]): 100% | Eff. % [4]: 71%

Cn1c(/C(=N\OCc2cccc(N)n2)c2ccccc2)noc1=O [Example 1, 3-[(Z)-{[(6-aminopyridin-2-yl)methoxy]imino}(phenyl)methyl]-4-methyl-1,2,4-oxadiazol-5(4H)-one]
chromatographic logP [1]: 1.14

Cn1c(/C(=N\OCc2cccc(N(C(=O)Oc3ccc(F)cc3)C(=O)Oc3ccc(F)cc3)n2)c2ccccc2)noc1=O [Example 330]
LogP [2]: 4.2 [a] | Eff. % [4]: 83%

Cn1c(/C(=N\OCc2cccc(NC(=O)OC(C)(C)C)n2)c2ccccc2)noc1=O [Example 21, tert-butyl {6-[({[(Z)-(4-methyl-5-oxo-4,5-dihydro-1,2,4-oxadiazol-3-yl)(phenyl)methylene]amino}oxy)methyl]pyridin-2-yl}carbamate]
Eff. % (Phytophthora infestans [5]): 97% | Eff. % (Plasmopara viticola): 100% | chromatographic logP [1]: 3.96

C#CCCC(C)OC(=O)Nc1cccc(CO/N=C(/c2ccccc2)c2noc(=O)n2CC)n1 (centres unmarked) [Example 207]
LogP [2]: 4.04 [a] | Eff. % (Phytophthora infestans [3]): 100% | Eff. % [4]: 79%

Cn1c(/C(=N\OCc2cccc(NC(=O)CCC3CCCCC3)n2)c2ccccc2)noc1=O [Example 77]
LogP [2]: 4.73 [a] | Eff. % (Phytophthora infestans [3]): 100% | Eff. % [4]: 71%

Cn1c(/C(=N\OCc2csc(NC(=O)c3ccccc3Cl)n2)c2ccccc2)noc1=O [Example 57]
LogP [2]: 3.46 [a] | Eff. % (Phytophthora infestans [3]): 85% | Eff. % [4]: 79%

Nc1cccc(CO/N=C(/c2ccccc2)c2noc(=O)[nH]2)n1 [Example 23, 3-[(Z)-{[(6-aminopyridin-2-yl)methoxy]imino}(phenyl)methyl]-1,2,4-oxadiazol-5(4H)-one]
chromatographic logP [1]: 1.36

Cc1cccc(/C(=N/OCc2cccc(N)n2)c2noc(=O)n2C)c1 [Example 30]
LogP [2]: 1.45 [a] | Eff. % (Phytophthora infestans [3]): 100% | Eff. % [4]: 86%

Cn1c(/C(=N\OCc2csc(NC(=O)c3ccccc3I)n2)c2ccccc2)noc1=O [Example 158]
LogP [2]: 3.6 [a] | Eff. % (Phytophthora infestans [3]): 85% | Eff. % [4]: 80%

C#CCCCCC(=O)Nc1cccc(CO/N=C(/c2ccccc2)c2noc(=O)n2C)n1 [Example 37]
Eff. % (Phytophthora infestans [3]): 100% | Eff. % (Plasmopara viticola): 80% | LogP [1]: 3.37 [a]

CCCC(C)C(=O)Nc1cccc(CO/N=C(/c2ccccc2)c2noc(=O)n2CC)n1 (centres unmarked) [Example 172]
Eff. % (Puccinia recondita): 89% | LogP [2]: 4.06 [a] | Eff. % (Phytophthora infestans [3]): 100% | Eff. % [4]: 86%

COc1cccc(CCOC(=O)Nc2cccc(CO/N=C(/c3ccccc3)c3noc(=O)n3C)n2)c1 [Example 151]
LogP [2]: 4.11 [a] | Eff. % (Phytophthora infestans [3]): 85% | Eff. % [4]: 92%
